PMC10573892, “β-Lactam TRPM8 Antagonists Derived from Phe-Phenylalaninol Conjugates: Structure–Activity Relationships and Antiallodynic Activity” (International Journal of Molecular Sciences, 2023)

Key:
hM3 = hM3 (Homo sapiens, UniProt P20309); assay: Radioligand binding at muscarinic M3 receptor; details: radioligand [3H]4-DMAP
Description: (§1) Furthermore, the investigation extended to measuring the binding affinity of compound 34 to calcitonin gene-related peptide hCGRPR, cannabinoid hCB2 and muscarinic hM3 receptors, which are all relevant to different pain conditions.

hCGRPR = hCGRPR (Homo sapiens, UniProt O60894+Q16602); assay: Radioligand binding at CGRP receptor; details: radioligand [125]hGCRPα
Description: as §1

hASIC3 channel = target: T1, hASIC3 channel (Homo sapiens, UniProt Q9UHC3); assay: ASIC3 channel functional assay (buffer pH 5.5); assay type: cell-based
T1 construct: Eurofins-CEREP or Eurofins-PANLABS (contract assay)
T1 sequence (Q9UHC3 1-531): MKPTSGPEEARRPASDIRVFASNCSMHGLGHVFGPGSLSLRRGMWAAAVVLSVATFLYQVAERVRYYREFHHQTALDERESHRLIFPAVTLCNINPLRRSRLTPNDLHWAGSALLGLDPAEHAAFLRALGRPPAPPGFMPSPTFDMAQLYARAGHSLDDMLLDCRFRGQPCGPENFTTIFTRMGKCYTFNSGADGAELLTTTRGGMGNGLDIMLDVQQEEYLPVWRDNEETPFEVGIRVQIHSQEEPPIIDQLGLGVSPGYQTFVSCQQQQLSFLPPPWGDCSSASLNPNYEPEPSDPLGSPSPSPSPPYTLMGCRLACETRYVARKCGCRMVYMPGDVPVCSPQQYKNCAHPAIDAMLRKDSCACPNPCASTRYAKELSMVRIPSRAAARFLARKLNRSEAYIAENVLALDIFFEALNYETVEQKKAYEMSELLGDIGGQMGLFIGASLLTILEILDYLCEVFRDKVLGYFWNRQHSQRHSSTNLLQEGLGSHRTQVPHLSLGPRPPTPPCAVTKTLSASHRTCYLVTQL
Description: (§2) The effects of compound 34 have been evaluated on different ion channels and receptors implicated in pain-related processes to assess the selectivity for TRPM8 channels. First, some TRP channels that play a role in temperature integration and nociception were selected, including hTRPV1, hTRPV3, hTRPA1 and TRPM3. Additionally, the evaluation encompassed the hASIC3 channel with widespread distribution within the peripheral nervous system and contributions to the excitability of primary sensory neurons. In each instance, the compound was subjected to evaluation at a consistent concentration of 10 µM.
(§3) Calcium fluorometry, Patch-Clamp assays and in vivo experiments were performed using the methodology previously described for TRPM8 [35] or TRPM3 [61]. In the Patch -Clamp experiments, the intracellular pipette solution contained (in mM) 140 KCl, 5 EGTA, and 10 mM HEPES, adjusted to pH 7.2 with KOH, and the extracellular solution contained (in mM) 140 NaCl, 2 CaCl2, 1 MgCl2, 10 D-glucose and 10 HEPES, adjusted to pH 7.4 with NaOH. Selectivity against TRPV1, TRPV3, TRPA1 and ASIC3 was subcontracted to Eurofins-CEREP or Eurofins-PANLABS (see ref. [35] for more details).

[1] = system: dorsal root ganglia (DRG) sensory neurons; assay: Resting membrane potential of DRG sensory neurons (current clamp Patch-Clamp); assay type: cell-based; details: 10 µM
Method: We also investigated the effect of β-lactams derivatives on the resting membrane potential (RMP) of dorsal root ganglia (DRG) sensory neurons.
(A) Representative recordings of resting membrane potential measured under current clamp configuration. The traces show the action potentials (APs) firings from DRG neurons elicited by 100 μM menthol (left trace) or in the presence of vehicle (0.5% DMSO) or the β-lactams derivatives ([…]). (B) Changes in the Vm in the absence and in the presence of 10 μM of the β-lactams derivatives. Data were analyzed by one-way ANOVA followed by Bonferroni post hoc test for multiple comparisons (ns = no significance, **** p < = 0.0001) and given as mean ± SEM; n ≥ 40 cells from 4 cultures.

[2] = target: T2, rat TRPM8 channel (rTRPM8) (Rattus norvegicus, UniProt Q8R455); assay: Ca2+ microfluorimetry, menthol-induced Ca2+ entry in HEK293 cells overexpressing rTRPM8; assay type: cell-based; details: Table 3; rTRPM8, HEK293, activation by 100 µM menthol
T2 construct: expressed in transfected cells
Method: The diastereomeric 1,4,4-trisubstitutes β-lactams were evaluated as modulators of the TRPM8 channel by calcium microfluorimetry assays. These assays use a Human Embryonic Kidney 293 (HEK293) cell line that stably overexpressed rat TRPM8 channel (rTRPM8). […] Three separated experiments in triplicate were used.
The initial biological evaluation of this series of 1,3,4,4-tetrasubstituted β-lactams was performed by calcium microfluorimetry assays using the indicated HEK293 cell line overexpressing rTRPM8 channels.
as §3

hCB2 = hCB2 (Homo sapiens, UniProt P34972); assay: Radioligand binding at cannabinoid CB2 receptor; details: radioligand [3H]WIN 55212-2
Description: as §1

rTRPM8 = target: T3, rTRPM8 (Rattus norvegicus, UniProt Q8R455); assay: Patch-Clamp electrophysiology on single HEK293 cells expressing rat TRPM8; assay type: cell-based; details: activation by 100 µM menthol; holding voltage −60 mV
T3 construct: expressed in transfected cells
Description: A recent research study using Patch-Clamp, among other techniques, established that menthol occupies a cavity within the TRPM8 S1–S4 transmembrane helix, with the OH group forming an H-bond with the δ-NH of R842 residue, and Van der Waals interactions among the methyl groups of the ^iPr moiety and residues I846 and L843 [41].
This is evident by a negligible current at negative potentials and a linear intensification of the ohmic current at positive voltages. When applying compound 34 at a concentration of […], a noticeable reduction in menthol-induced activity at depolarizing voltages was observed (indicated by the red line) compared to menthol alone. Dose–response relationships for both tested compounds were established through triplicate experiments at various concentrations, applying a holding voltage of −60 mV (as shown in Figure 2B).
as §3
Figure 2 Compound 34 blocks TRPM8-mediated responses evoked by menthol in rTRPM8-expressing HEK293 cells. (A) IV curves obtained after exposure to vehicle solution (green trace), 100 µM menthol (blue trace) and 100 µM menthol + 10 µM 34 (red trace). Peak current data were expressed as pA/pF (to allow comparison among different size cells). Each point is the mean ± SEM of n = 15. (B) Concentration/response curves for rTRPM8 current blockade by 34 at a holding voltage of −60 mV. […]

hTRPA1 = target: T4, hTRPA1 (Homo sapiens, UniProt O75762); assay: TRPA1 channel Ca2+ microfluorimetry (allylisothiocyanate 10 μM); assay type: cell-based; details: agonist allylisothiocyanate 10 μM
T4 construct: Eurofins-CEREP or Eurofins-PANLABS (contract assay)
Description: as §2, §3

T2 sequence (Q8R455 whole entry): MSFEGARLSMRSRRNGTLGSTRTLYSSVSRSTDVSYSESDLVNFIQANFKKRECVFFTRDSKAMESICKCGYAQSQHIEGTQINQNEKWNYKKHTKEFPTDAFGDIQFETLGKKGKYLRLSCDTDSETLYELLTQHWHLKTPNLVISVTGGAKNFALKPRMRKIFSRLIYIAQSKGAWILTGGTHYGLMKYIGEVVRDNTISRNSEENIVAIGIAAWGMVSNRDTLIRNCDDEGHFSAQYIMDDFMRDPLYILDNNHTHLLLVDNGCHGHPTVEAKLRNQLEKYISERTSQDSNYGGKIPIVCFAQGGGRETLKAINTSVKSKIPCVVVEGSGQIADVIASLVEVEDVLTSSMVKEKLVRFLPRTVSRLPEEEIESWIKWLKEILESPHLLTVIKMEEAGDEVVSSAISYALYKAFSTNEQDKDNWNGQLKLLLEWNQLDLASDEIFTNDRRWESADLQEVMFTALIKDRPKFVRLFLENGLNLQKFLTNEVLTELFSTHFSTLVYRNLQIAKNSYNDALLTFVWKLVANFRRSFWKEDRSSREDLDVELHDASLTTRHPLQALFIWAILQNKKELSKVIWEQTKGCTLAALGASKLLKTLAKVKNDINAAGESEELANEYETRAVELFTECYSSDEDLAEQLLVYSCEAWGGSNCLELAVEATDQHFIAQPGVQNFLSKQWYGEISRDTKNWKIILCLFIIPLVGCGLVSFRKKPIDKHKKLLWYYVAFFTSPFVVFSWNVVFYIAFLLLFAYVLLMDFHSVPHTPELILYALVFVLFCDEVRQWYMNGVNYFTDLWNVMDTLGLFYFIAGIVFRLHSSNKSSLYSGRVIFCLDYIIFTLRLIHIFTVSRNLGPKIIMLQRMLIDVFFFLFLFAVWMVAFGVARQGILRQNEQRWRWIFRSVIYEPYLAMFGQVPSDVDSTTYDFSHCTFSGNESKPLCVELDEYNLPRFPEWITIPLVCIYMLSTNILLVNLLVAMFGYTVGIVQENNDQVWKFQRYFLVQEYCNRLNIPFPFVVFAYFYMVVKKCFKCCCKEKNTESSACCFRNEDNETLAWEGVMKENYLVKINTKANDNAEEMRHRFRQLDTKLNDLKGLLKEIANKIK
T3 sequence (Q8R455 whole entry): as above
hM3, sequence (P20309 whole entry): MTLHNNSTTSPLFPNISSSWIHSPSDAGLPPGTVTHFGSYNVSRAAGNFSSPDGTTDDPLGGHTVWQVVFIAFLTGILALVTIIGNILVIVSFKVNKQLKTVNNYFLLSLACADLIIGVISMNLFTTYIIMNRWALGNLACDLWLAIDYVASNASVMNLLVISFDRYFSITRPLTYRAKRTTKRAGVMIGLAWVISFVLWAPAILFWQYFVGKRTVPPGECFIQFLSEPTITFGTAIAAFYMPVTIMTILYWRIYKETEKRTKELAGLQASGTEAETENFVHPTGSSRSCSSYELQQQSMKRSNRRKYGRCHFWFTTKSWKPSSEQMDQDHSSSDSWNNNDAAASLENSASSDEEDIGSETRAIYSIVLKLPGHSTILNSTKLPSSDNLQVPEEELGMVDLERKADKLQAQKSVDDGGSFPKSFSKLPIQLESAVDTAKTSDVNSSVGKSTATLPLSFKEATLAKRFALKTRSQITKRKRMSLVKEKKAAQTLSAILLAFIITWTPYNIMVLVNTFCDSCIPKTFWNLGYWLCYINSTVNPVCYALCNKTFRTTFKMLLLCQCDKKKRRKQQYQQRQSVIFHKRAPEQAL
T4 sequence (O75762 whole entry): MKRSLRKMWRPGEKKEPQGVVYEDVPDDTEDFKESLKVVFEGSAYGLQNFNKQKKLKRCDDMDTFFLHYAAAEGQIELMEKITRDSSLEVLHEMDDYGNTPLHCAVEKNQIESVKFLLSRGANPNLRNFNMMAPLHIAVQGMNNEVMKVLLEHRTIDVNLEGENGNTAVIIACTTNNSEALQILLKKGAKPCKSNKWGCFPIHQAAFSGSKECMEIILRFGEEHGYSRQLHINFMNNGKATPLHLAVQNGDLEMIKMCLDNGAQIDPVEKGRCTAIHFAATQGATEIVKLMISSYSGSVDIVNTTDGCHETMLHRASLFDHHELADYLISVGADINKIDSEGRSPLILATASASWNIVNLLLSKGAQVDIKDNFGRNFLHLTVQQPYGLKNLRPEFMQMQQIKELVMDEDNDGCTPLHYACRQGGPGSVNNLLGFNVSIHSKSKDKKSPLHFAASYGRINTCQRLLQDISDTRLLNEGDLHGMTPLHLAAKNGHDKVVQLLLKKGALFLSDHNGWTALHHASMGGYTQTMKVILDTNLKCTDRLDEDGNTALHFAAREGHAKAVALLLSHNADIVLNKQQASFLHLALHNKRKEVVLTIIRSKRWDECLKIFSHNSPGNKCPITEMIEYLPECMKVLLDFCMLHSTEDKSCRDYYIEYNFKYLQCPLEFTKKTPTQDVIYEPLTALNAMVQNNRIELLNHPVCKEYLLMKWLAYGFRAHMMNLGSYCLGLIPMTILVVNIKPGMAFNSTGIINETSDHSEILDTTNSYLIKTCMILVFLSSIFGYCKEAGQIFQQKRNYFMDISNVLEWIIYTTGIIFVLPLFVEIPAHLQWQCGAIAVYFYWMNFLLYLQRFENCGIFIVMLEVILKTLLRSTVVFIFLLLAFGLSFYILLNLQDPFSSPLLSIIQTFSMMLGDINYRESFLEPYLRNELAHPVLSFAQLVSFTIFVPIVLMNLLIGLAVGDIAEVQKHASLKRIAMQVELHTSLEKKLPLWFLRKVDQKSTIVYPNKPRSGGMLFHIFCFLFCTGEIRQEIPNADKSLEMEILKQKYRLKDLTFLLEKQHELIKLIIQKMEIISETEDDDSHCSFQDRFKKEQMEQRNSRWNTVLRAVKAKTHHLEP
hCB2, sequence (P34972 whole entry): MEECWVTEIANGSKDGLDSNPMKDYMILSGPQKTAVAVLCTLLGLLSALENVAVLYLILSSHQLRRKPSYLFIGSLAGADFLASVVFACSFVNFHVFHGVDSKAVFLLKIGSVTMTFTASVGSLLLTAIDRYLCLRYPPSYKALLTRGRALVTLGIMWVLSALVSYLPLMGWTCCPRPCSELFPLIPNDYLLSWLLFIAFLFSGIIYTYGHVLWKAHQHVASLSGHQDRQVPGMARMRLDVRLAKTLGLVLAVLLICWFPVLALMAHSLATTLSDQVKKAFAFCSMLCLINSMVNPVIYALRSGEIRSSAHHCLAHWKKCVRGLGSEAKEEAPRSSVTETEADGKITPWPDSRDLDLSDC
hCGRPR, sequence (Q16602 23-461): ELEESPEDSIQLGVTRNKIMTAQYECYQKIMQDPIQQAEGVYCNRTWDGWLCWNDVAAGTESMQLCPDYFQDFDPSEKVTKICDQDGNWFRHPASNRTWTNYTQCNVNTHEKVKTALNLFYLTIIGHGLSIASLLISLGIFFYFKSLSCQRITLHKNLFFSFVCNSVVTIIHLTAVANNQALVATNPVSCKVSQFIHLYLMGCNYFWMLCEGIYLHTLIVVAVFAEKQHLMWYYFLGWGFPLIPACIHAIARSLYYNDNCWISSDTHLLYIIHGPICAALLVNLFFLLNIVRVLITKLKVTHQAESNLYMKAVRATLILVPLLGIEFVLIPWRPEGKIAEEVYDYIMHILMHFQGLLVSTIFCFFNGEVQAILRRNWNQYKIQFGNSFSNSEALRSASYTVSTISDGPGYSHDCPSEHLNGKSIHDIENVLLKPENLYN
hCGRPR, sequence (O60894 27-148): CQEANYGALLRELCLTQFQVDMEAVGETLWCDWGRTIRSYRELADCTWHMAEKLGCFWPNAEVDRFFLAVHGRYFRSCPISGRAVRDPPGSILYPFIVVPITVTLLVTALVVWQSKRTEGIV

inhibition at 10 µM (hM3): 5.2 ± 3.2%
inhibition at 10 µM (hCGRPR): -11.9 ± 5.2%
inhibition at 10 µM (hASIC3 channel): 2.2 ± 9.6%
IC50 [2]: 0.3 µM
inhibition at 10 µM (hCB2): 7 ± 2.1%
IC50 (rTRPM8): 0.16 µM
inhibition at 10 µM (hTRPA1): 2 ± 3.4%
SMILES: CC(C)CNC(=O)[C@]1(Cc2ccccc2)[C@H](C)C(=O)N1C[C@H](Cc1ccccc1)N(Cc1ccccc1)Cc1ccccc1 [Compound 34, 4S-Benzyl-4-[N-(iso-butyl)-carbamoyl]-3S-methyl-1-[(2′S-dibenzylamino-3′-phenyl)prop-1′-yl]-2-oxoazetidine]
effect on resting membrane potential (RMP) [1]: did not alter the RMP
